Here are results for one compound from US20220125839A1, “COMBINATION OF T-CELL THERAPY AND TARGETED THERAPY FOR TREATING THERAPY-RESISTANT MELANOMA WITH MUTATIONS IN THE BRAF GENE” (H. LEE MOFFITT CANCER CENTER AND RESEARCH INSTITUTE, INC., priority 2019, published 2022).

Where only a bound is given, the exact number is not on record here.

Test [1] deals with WM35-BR cells. As to the kind of experiment: Tumor growth of WM35-BR xenografts in NOD/SCID mice. Type of test: in vivo. The settings on record: PLX4720 50 mg/kg for 10 days, TIL i.v. twice at a 4 day interval. On the procedure:
In order to establish xenograft models, cultured WM35, WM35-BR, WM983B-BR-pAHygCMV2 and WM983B-BR-M6PR/IGF2R cells were harvested, suspended in sterile PBS, mixed in 2:1 ratio with Matrigel and injected subcutaneously into the left flank of mice (1-3×10^6 cells per mouse). PLX4720 was administered daily at dose 50 mg/kg for 10 days via oral gavage. As a control, mice treated with vehicle alone (2% DMSO, 50% PEG 300, 5% Tween 80) were used. Treatments were started when tumors were 0.5-0.8 cm in diameter.
We next tested whether PLX-induced M6PR up-regulation on the cell surface of resistant cells sensitized them to HLA-matched TIL. […] We asked whether BRAFi could sensitize resistant tumors to TILs in vivo. WM35-BR cells were injected subcutaneously to the flanks of immune deficient NOD/SCID mice and when tumors became palpable, mice were split to 4 groups. Mice treated with vehicle alone, mice treated with 50 mg/kg PLX4720 for 10 days, mice treated with CD8+ T-cell enriched TIL i.v. twice at a 4 day interval and mice treated with combination of PLX4720 and TILs.

Test [2] has as its system M6PR. As to the kind of experiment: IHC staining of M6PR in WM35-BR tumors in NOD/SCID mice. It counts as in vivo.
Procedure: Tumor tissues were harvested, fixed overnight with 4% paraformaldehyde (Electron Microscopy Science; Cat. no. 15710) at 4° C., embedded in paraffin blocks and 4-5 μm thick sections of the tissue were prepared and stained with polyclonal goat M6PR/IGF2R primary antibody (R&D Systems; Cat. no. AF2447; 5 μg/mL per samples) O/N at 4° C. Biotinylated 2nd antibody in 1:200 dilution was used for 30 min at RT followed by application of ABC solution (avidin dehydroxygenase and biotinylated horseradish peroxidase) for 30 min at RT. DAB 0.05% solution was applied for 3-4 min at RT. Hematoxylin was used for counterstaining the nucleus. Images were analyzed using Nis-Elements Ar (Advanced Research) Nikon 80i Upright Microscope with 40×N.A. objective. Each slide was scanned, images were manually captured at separate X, Y locations and a multipoint ND document was created point by point. A threshold value was defined for each image (for brown M6PR staining) using the single point selection tool. […]
WM35-BR tumor cells were injected subcutaneously to the flank of NOD/SCID mice and once the average tumor area reached around 40-50 mm2 in size, mice were treated with vehicle or 50 mg/kg PLX4720 by oral gavage for 5 days. After 5 days of PLX4720 treatment, tumors were harvested at different time points and M6PR expression in tumor tissues was detected by IHC staining.
In test [3] the test system is WM35 cells. Kind of test: CTL assay (51Cr release), WM35 targets with HLA-A2+ TIL. Particulars: WM35 pretreated with PLX4720 O/N vs DMSO. It counts as cell-based, human.
Procedure: (OKT3) (eBioscience; Cat. no. 16-0037-81) in the presence of 29×10^6 irradiated (5000 rad) allogenic PBMC as feeder cells. TIL were cultured in 9.6 mL of REP Media I (comprised of RPMI 1640, 10% heat-inactivated human AB serum (Sigma-Aldrich; Cat. no. H4522), 55 μM 2-mercaptoethanol (Gibco; Cat. no. 21985-023), 10 mM HEPES Buffer (Corning; Cat. no. 30-060-C1)) and 10.7 mL AIM V (Gibco; Cat. no. 0870112-DK) supplemented with 6000 I.U./mL rhIL-2. On day 4.15 mL media was replaced with fresh media (50% AIM V and 50% REP I) containing 3000 I.U./mL rhIL-2. On day 7.15 mL media was removed and 15 mL of AIM V containing 3000 I.U./mL rhIL-2 was added to the culture. […] After 14 days, TIL were collected, counted and CD8+ TIL were isolated using EasySep™ Human CD8+ T Cell Enrichment Kit (Stem Cell Technologies; Cat. no. 19053) for further experiments.
For Chromium (^51Cr) release assays, 1×10^6 human melanoma cells were incubated with 100 μCi ^51Cr (Perkin-Elmer; Cat. no. NEZ030S001MC; 1 mCi/mL) at 37° C. for 60 minutes, washed 3 times with sterile PBS and plated into 96-well round-bottom plates at a cell density of 1×10^4 tumor target cells/well. […] After incubation, plates were centrifuged, 50 μl supernatant was harvested from each well and ^51Cr release was measured using a gamma counter. […]
For test [4], the system named is BRAFV600E mouse melanoma transplants. Particulars: in vivo; cited from earlier work.
Test [5] relates to WM35 cells. As to the kind of experiment: Granzyme B (GrzB) uptake by WM35 cells. Type of test: cell-based, human. Particulars: overnight PLX4720, then inactive GrzB for an hour.
Procedure: (§2) Cells were then stained with Aqua dead cell staining kit (Thermo Fischer Scientific) for 15 min at 4° C. fixed in fixation buffer (BD Cytofix/Cytoperm; Cat. no. 51-2090). Granzyme B antibody (Cat. no. 561142) or its isotype control (BD Bioscience; Cat. no. 555749) were used. Stained cells were run on LSR14. Data was analyzed by FlowJo software (Tree Star).
For test [6], the system named is M6PR. As to the kind of experiment: Cell surface M6PR expression by flow cytometry in WM983B melanoma cells. It counts as cell-based, human. Here is the method:
(§1) Human studies were approved by The Wistar Institute IRB. Peripheral blood was collected from healthy volunteers after obtaining informed consent. Animal experiments were approved by The Wistar Institute Animal Care and Use Committee. The mice were kept under pathogen free conditions. Experiments were carried out using female NSG mice or female and male nonobese diabetic/severe combined immunodeficient (NOD/SCID) mice, obtained from the mouse facility of the Wistar Institute and Charles River Laboratories, respectively. WM35 human melanoma and HLA-matched human tumor infiltrating lymphocytes (TIL) were generated at H. Lee Moffitt Cancer Center and Research Institute, Tampa, Fla., USA). […] Louis, Mo.) and 1% Pen/Strep (Corning; Cat. no. 30-002-Cl) at 37° C., 5% CO2. PLX4720-resistant cells were kept in cell culture media supplemented with 1 μM PLX4720 to keep these cells resistant against the drug. 350 μg/mL Hygromycin B (Invitrogen; […] Tumor cell lines were tested for mycoplasma contamination by using Universal Mycoplasma detection kit (ATCC) regularly. […] Cat. no. […] Cat. no. S2673). Hypoxia (0.5% 02) was maintained using hypoxic chamber (BioSpherix). […] Cells were incubated with Aqua dead cell staining kit (Thermo Fischer Scientific; Cat. no. […] Cat. no. 565105; clone no. MEM-238) or its isotype (BD Biosciences; Cat. no. 557732; clone no. MOPC-21) at 4° C. for 20 minutes. Cells were fixed using 1% paraformaldehyde for 20 minutes at 4° C. before running them on LSR14. Data was analyzed by FlowJo software (Tree Star).
(In general: Flow cytometry measures light scatter and fluorescence of single cells or particles in a stream.)

For test [7], the system named is WM35-BR cells. As to the kind of experiment: Granzyme B (GrzB) uptake by WM35-BR cells. It counts as cell-based, human. Particulars: 10 μM overnight, then inactive GrzB one hour.
Procedure: as §2
The test system of test [8] is M6PR. As to the kind of experiment: Cell surface M6PR expression by flow cytometry in WM35 melanoma cells. Type of test: cell-based, human. Here is the method: as §1, with “MOPC-21) at 4° C. for 20 minutes. Cells were fixed using 1% paraformaldehyde for 20 minutes at 4° C. before running them on LSR14.” left out
Test [9] has as its system M6PR. Kind of test: M6PR staining in patient derived xenografts (PDX). It counts as in vivo, mice. Particulars: PDX from four patients (4237, 3929, 4070, 4298); treated for 3 weeks. On the procedure: FIGS. 11A, 11B, and 11 C show M6PR expression in patients treated with vemurafenib plus ACT with TIL. […] Mice with PDX were left untreated for 4 weeks (untreated), or treated for 3 weeks with corresponding single agent BRAFi (PLX-PLX4720) or combination with MEKi (CPLX-PLX4720 and PD0325901). Tissues were stained for M6PR and intensity of staining was assessed in 8 fields. Typical example of staining (scale bar=25 μm) and statistical analysis are shown. Intensity was normalized to untreated samples. Mean and SD for 8 fields are shown. P values were calculated in unpaired Student's t-test. […] H-score results are shown. P value is shown in paired twotailed Student's t test.
To test the effect of therapy on M6PR expression in clinical samples, we established patient derived xenografts (PDX) from four patients who were either treatment naïve (4237, 3929), or progressed on BRAFi (4070) or combination of BRAFi and MEKi (4298). Mice with PDX were left untreated or treated for 3 weeks with single agent BRAFi (PLX-PLX4720) or combination with MEKi (CPLXPLX4720 and PD0325901).
(In xenograft studies the graft and the host belong to different species.)

Where [10] appears, read: 1 μM, 2.5, 5 or 10 μM PLX4720, within 6 hours.

Consider `CCCS(=O)(=O)Nc1ccc(F)c(C(=O)c2c[nH]c3ncc(Cl)cc23)c1F` [PLX4720], for which the tumor growth entry with WM35-BR cells [1] was “did not affect tumor growth”. Further, the “M6PR in tumor tissues by IHC” value in the test on M6PR [2] (50 mg/kg oral gavage for 5 days) is given as “marked up-regulation of M6PR in tumor tissues, which was lower than that observed in sensitive cell lines”. The “M6PR expression after treatment was stopped” value in the test on M6PR [2] (compared with sensitive lines) is “decreased more rapidly after treatment was stopped”. For the same compound, in the test with WM35 cells [3], the “sensitivity to lysis by effector cells (TIL)” value is recorded as “more sensitive to the lysis by effector cells”. In test [4], the “CD8+T/FoxP3+CD4+ T cell ratio and NK cells” value is “robust increase in the CD8+T/FoxP3+CD4+ T cell ratio and in NK cells”; the “tumor CCL2 expression” value is on record as “decreased tumor CCL2 expression”; the tumor immunogenicity entry is on record as “did not directly increase tumor immunogenicity”. In addition, in the test with WM35 cells [5], the “GrzB uptake by tumor cells” value is reported as “significant up-regulation of GrzB uptake”. Besides, the “M6PR on the cell surface” value with M6PR [6] (setting [10]) is listed as “substantial dose-dependent up-regulation of M6PR on the cell surface”. Further, the “expression of M6PR during hypoxia” value in the test on M6PR [6] (0.5% O2, within 3 hours after starting treatment, 10 μM) was “significant (p<0.0001) increase in the expression of M6PR”. In the test with M6PR [6] (0.5% O2 vs normoxia), the “M6PR up-regulation, hypoxia compared with normoxia” value is given as “more pronounced under hypoxic conditions than in normoxia”. The “M6PR expression twenty-four hours after starting treatment” value with M6PR [6] (24 hours) is recorded as “no up-regulation of M6PR expression”. Moreover, the “M6PR expression on the cell surface” value with M6PR [6] (O/N, different concentrations of PLX4720) is on record as “substantial up-regulation of M6PR”. Also, the “time to maximum M6PR up-regulation” value in the test on M6PR [6] (hypoxic conditions) was at most 12 h. Besides, the “intracellular GrzB levels” value with WM35-BR cells [7] is on record as “significantly higher amount of GrzB than DMSO treated cells”. Besides, the “M6PR on the cell surface” value with M6PR [8] (setting [10]) is “substantial dose-dependent up-regulation of M6PR on the cell surface”. In the test on M6PR [8] (overnight), the “cell surface M6PR after overnight treatment” value is given as “M6PR up-regulation was confirmed”. Also, in the test on M6PR [9], the “M6PR in tumors (PDX)” value was “marked up-regulation of M6PR in tumors”.
